In patent publication US20080051464A1, “Protein phosphatase inhibitors” (The Cleveland Clinic Foundation, priority 2006, published 2008):

Legend:
recombinant SHP-1 = target: T1, recombinant SHP-1 (Homo sapiens, UniProt P29350); assay: rapid in vitro SHP-1 PTPase assay (DIFMUP substrate); type: biochemical; details: 1 μg/well; FIG. 12A
T1 construct: Recombinant protein of SHP-1 PTPase catalytic domain was described
T1 sequence (P29350 244-515 limits assumed): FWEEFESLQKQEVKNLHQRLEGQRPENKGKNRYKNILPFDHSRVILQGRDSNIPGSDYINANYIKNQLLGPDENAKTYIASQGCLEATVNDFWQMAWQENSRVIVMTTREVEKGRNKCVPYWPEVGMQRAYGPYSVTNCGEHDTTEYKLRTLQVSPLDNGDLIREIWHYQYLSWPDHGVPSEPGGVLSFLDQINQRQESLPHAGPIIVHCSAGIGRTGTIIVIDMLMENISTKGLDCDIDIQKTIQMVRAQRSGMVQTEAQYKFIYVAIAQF
Description: Recombinant protein of SHP-1 PTPase catalytic domain was described and stored in Tris buffer (25 mM Tris, pH7.5, 1 mM EDTA, 2 μM 2-ME, 25% glycerol) at −80° C. Fluorescence substrate DIFMUP (6,8-difluoro-4 methylumbelliferyl phosphate) was purchased (Molecular Probes). SSG was reported previously (21-23) and stored at 4° C. in darkness prior to use. Human and mouse IFNγ ELISPOT Kit (R & D System), CD4^+ Cell Intracellular IFNγ Detection Kit (BD Bioscience) and CD8^+ Cell Intracellular IFNγ Detection Kit (BD Bioscience) were purchased from commercial sources. Human Jurkat T cell line (26) and murine B16 melanoma cell line (ATCC) were maintained in […] culture medium supplemented with 10% fetal calf serum (FCS). Antibodies against pLck-pY394 (Cell Signaling), pLck-pY505 (Cell Signaling), pZap70 (pY319, BD Biosciences), pSlp76 (pY128, BD Biosciences) and pLat (pY226, BD Biosciences) were purchased from commercial sources.
(§1) A rapid SHP-1 PTPase assay was developed for screening the compounds in a commercial library of 34,000 drug-like small chemicals (Chembridge, Mass.). Briefly, compounds of the library (1 μg/well in 0.21 DMSO) were placed in 96-well plates (Falcon, 353072) and mixed with recombinant SHP-1 protein (0.1 μg/well) in 90 μl of HEPES buffer (50 mM HEPS, pH 7.5, 150 mM NaCl, 1 mM EDTA, 0.2 mM DTT and 0.1 mg/ml BSA). The plates were incubated at room temperature for 10 minutes prior to the addition of fluorescence substrate DIFMUP (40 μM stock in HEPES buffer, 10 μl/well) to initiate PTPase reaction. Upon completion of PTPase reaction at room temperature for 1 hr in darkness, fluorescence signal of individual wells were recorded using a Vector^2 Multilabel Counter (Vector, CA). They were compared to that of control SHP-1 PTPase reaction (˜10,000 units of fluorescence signal) in the absence of any compound (100%) for calculating relative SHP-1 inhibition induced by the compounds after subtracting the background signal (˜500 units of fluorescence signal) of the substrate.
as §1, with “To evaluate their” for “A rapid”, “inhibitory activity,” for “PTPase assay was developed for screening”, “analogs” for “compounds in a commercial library of 34,000 drug-like small chemicals (Chembridge, Mass.). Briefly, compounds of the library”, “0.2 μl” for “0.21”, “aliquot individually to” for “placed in”, “(500” for “(˜500”

[1] = system: SHP-1 substrate pLck-pY394 in Jurkat T cells; assay: induction of pLck-pY394 in Jurkat cells (SDS-PAGE/Western blotting); type: cell-based, human
Description: (§2) Jurkat cells in culture medium (3×10^6 cells/ml, 1 ml/tube) were treated with agents for designated times at room temperature. After brief centrifuging in a microfuge (4,000 rpm, 2 min), the cell pellet was lysed on ice for 30 min in 100 μl of cold lysis buffer (1% NP40, 50 mM Tris, pH 7.4, 150 mM NaCl, 20 mM NaF, 0.2 mM Na3VO4 and 1 mM Na3MO4) containing a cocktail of proteinase inhibitors (Sigma, 1 tablet/10 ml). The lysates were cleared by centrifuging (14,000 rpm, 10 min) in a microfuge at 4° C. to remove insoluble parts, mixed with equal volume of 2×SDS-PAGE sample buffer, boiled for 5 min and analyzed (˜3×10^5 cells/well) by SDS-PAGE/Western blotting. Relative intensities of phosphotyrosine bands were quantified through densitometry analysis.
as §2, with “blotting as described previously (23, 24).” for “blotting.”
as §2, with “blotting as described previously (17, 18).” for “blotting.”

[2] = system: IFNγ+ cells in mouse splenocytes; assay: induction of IFNγ+ cells in mouse splenocytes in vitro (ELISPOT); type: cell-based
Description: The splenocytes were cultured in RPMI 1640 medium supplemented with 10% FCS in the absence or presence of designated agents for 16 hrs in flat-bottom 96-well plates coated with a monoclonal antibody specific for mouse IFNγ (mouse IFNγ ELISPOT Kit, R & D System). The plates were then processed for in situ detection of IFNγ+ cells by ELISA following the manufacturer's procedure. Scanning and counting of IFNγ+ cells in the plates were accomplished using an automatic ELISPOT reader with Immunospot2 software (Cellular Technology Ltd). Mouse splenocytes were also untreated or treated with agents for 16 hrs in culture dishes and then stained with appropriate isotype control antibodies or FICT-labeled anti-CD3 monoclonal antibody (BD) plus PE-labeled monoclonal antibody (BD) for intracellular IFNγ following established procedures. The stained samples were washed 3 times, re-suspended in 200 μl of 1% para-formaldehyde solution and analyzed (20,000 cells/sample) using a BD FACS Caliburs cytometer and WinList software.
The splenocytes were cultured in RPMI 1640 medium supplemented with 10% FCS in the absence or presence of designated agents for 16 hrs in flat-bottom 96-well plates coated with a monoclonal antibody specific for mouse IFNγ (mouse IFNγ ELISPOT Kit, R & D System). The plates were then processed for in situ detection of IFNγ+ cells by ELISA following the manufacturer's procedure. Scanning and counting of IFNγ+ cells in the plates were accomplished using an automatic ELISPOT reader with Immunospot2 software (Cellular Technology Ltd).

[3] = system: CD3+ and CD3− IFNγ+ splenocytes; assay: spleno-IFNγ+ T cells in B16 tumor mice (flow cytometry); type: in vivo, mouse; details: 1 mg/kg oral, day 22
Description: Splenocytes from mice untreated or treated with L5a2 were stained with appropriate isotype control antibodies or FICT-labeled anti-CD3 monoclonal antibody (BD) plus PE-labeled monoclonal antibody (BD) for intracellular IFNγ following established procedures. The stained samples were washed 3 times, re-suspended in 200 μl of 1% para-formaldehyde solution and analyzed (20,000 cells/sample) using a BD FACS Caliburs cytometer and FlowJoe software.
To gain further insights into the mechanism of action in L5a2 in vivo, spleens were harvested from the B16 tumor mice in the control and the L5a2-treated groups (FIG. 13A) on day 22 to assess whether L5a2 induced IFNγ+ cells in the tumor-bearing mice. It was also determined whether the induced-IFNγ+ cells were of CD3+ T lymphocytes, which were activated TH1 critical for anti-tumor immunity. Splenocytes were prepared and co-stained for intracellular IFNγ and the T cell surface marker CD3 for quantification of IFNγ+T cells by flow cytometry.

B16 melanoma tumors = assay: B16 melanoma tumor growth in C57BL/6J mice; type: in vivo
Description: Tumor volume (n=5) was measured during the study period and calculated using the formula for a prolate spheroid. Student's t test was used for assessing the significance of tumor volume differences among differential treatment groups. Mouse viability (daily) and body weights (weekly) were also recorded during the study period. Major internal organs of the mice were inspected visually upon their termination at the end of the experiment.
To assess anti-tumor activity, C57BL/6J mice (˜8-week old, female, Taconic Farms, Germantown, N.Y.) were inoculated (s.c.) at the flanks with B16 melanoma cells (4×10^4 cells/site). […] Tumor volume (n=5) was measured during the study period and calculated using the formula for a prolate spheroid. Student's t test was used for assessing the significance of tumor volume differences among differential treatment groups. Mouse viability (daily) and body weights (weekly) were also recorded during the study period. Major internal organs of the mice were inspected visually upon their termination at the end of the experiment.

B16 melanoma cells = assay: B16 melanoma cell growth in culture (MTT assay); type: cell-based, mouse; details: 6 days (FIG. 13C)
Source text: L5, L6 and L6 analogs (Chembridge), mouse IFNγ ELISPOT Kit (R & D System) and antibody against pLck-pY394 or pERK1/2 (Cell Signaling) were purchased from commercial sources. Human Jurkat T cell line and murine B16 melanoma cell line (ATCC) and other cancer cell lines were maintained in […] culture medium supplemented with 10% fetal calf serum (FCS). The effects of chemical compounds on cancer cell growth in culture were quantified by MTT assays following our established procedures.

MKPs = assay: induction of MKPs substrates in Jurkat cells (Western blotting); type: cell-based, human
Description: FIG. 22 illustrates selective induction of MKPs substrates by L6 and analogs in Jurkat human leukemic cells. Jurkat cells were treated with the compounds for 30 min in culture prior to quantification of MKPs substrates by SDS-PAGE/Western blotting.

Jurkat cells = assay: Jurkat cell apoptosis (Annexin V / 7-AAD, FACS); type: cell-based, human; details: 16 hrs (FIG. 23)
Description: FIG. 23 illustrates jurkat cells were treated with L6 and analogs in culture for 16 hrs. Cells were then stained for apoptotic marker Annexin V and cell death marker 7-AAD prior to FACS analysis.

[4] = system: HT-29 human colon cancer cells; assay: cytotoxicity of 5FU against HT-29 cells with L6 or analogs (MTT assay); type: cell-based; details: 5FU 2 μm, 3 days, then 4 days culture (FIG. 24)
Description: FIG. 24 illustrates HT-29 cells were treated with L6 or the analogs in the absence or presence of 5FU (2 μm) for 3 days. After washing, the cells were cultured for 4 days prior to quantification of viable cells by MTT assays.

SHP-1 and SHP-2 = assay: SSG inhibition of recombinant and intracellular SHPs (applicant's earlier studies); details: clinically achievable levels

With O=C1C=CC(=O)C(c2ccc(Cl)cc2Cl)=C1 [L5a1] the “inhibition of phosphatase activity of recombinant SHP-1” value (“inhibition … of recombinant SHP-1” for short) (recombinant SHP-1) was “completely or almost completely inhibited” and the “effectiveness in inducing pLck-pY394 relative to L5” value ([1]; Jurkat cells, 10 min (FIG. 10)) was roughly 50%.
In the case of O=C1C=CC(=O)C(c2cccc(Cl)c2)=C1 [L5a2], the “immune cell activation (increase)” value ([2]; FIG. 11) is reported as roughly 20 fold, the “inhibition … of recombinant SHP-1” value (recombinant SHP-1) is reported as “completely or almost completely inhibited” and the “increase of CD3+ IFNγ+ cells” value [3] is reported as roughly 4.5 fold. For the same compound, the “increase of CD3− IFNγ+ cells” value [3] was 1.3 fold, the “growth inhibition of B16 tumors vs control” value (B16 melanoma tumors; 1 mg/kg body weight daily, Monday-Friday/week, oral gavage) was roughly 75% and the “survival of treated mice” value (B16 melanoma tumors; 1 mg/kg daily, oral gavage) was “survived till the end of the study”. The “inhibition of B16 melanoma cells in culture” value (B16 melanoma cells) was “failed to inhibit B16 melanoma cells in culture”.
O=C1C=C(c2ccccc2)C(=O)c2ccccc21 [L5a3] was tested, and the “inhibition … of recombinant SHP-1” value (recombinant SHP-1) was roughly 80%.
In the case of CCOc1ccc(C2=CC(=O)C=CC2=O)cc1 [L5a4], the “inhibition … of recombinant SHP-1” value (recombinant SHP-1) is reported as “completely or almost completely inhibited”.
In the case of COc1ccc(C2=CC(=O)C=CC2=O)cc1 [L5a5], the “inhibition … of recombinant SHP-1” value (recombinant SHP-1) is reported as “completely or almost completely inhibited”.
With O=C1C=C(c2ccccc2Cl)CC(=O)C1 [L5a10] the “induction of spleno-IFNγ+ cells (average)” value ([2]; doses from 1-30 μg/ml) was roughly 2 folds, the “inhibition … of recombinant SHP-1” value (recombinant SHP-1) was roughly 5% and the “inhibition of B16 melanoma tumors in mice” value (B16 melanoma tumors; preliminary experiment) was “failed to inhibit B16 melanoma tumors”. The “effect on pLck-pY394 levels” value ([1]; Jurkat cells, 10 min (FIG. 10)) was “failed to induce pLck-pY394”.
With O=c1cc(Cl)sn1Cc1ccccc1 [L6a1] the “MKP predominantly targeted (as indicated by effects on the substrates)” value (MKPs) was “inhibited HVH3”, the “differential effects on MKP substrates (pERK1/2, p38, pJNK)” value (MKPs; 30 min (FIG. 22), L6 at 1-100 ng/ml) was “lack of activity to induce pJNK or p-p39” and the Jurkat cell apoptosis (Jurkat cells) was “failed to induce apoptosis”. For the same compound, the “augmentation of 5FU cytotoxicity against HT-29 cells” value [4] was “not”.
O.O.O.O.O.O.O.O.O.O=C([O-])[C@@H]1[O][Sb]2([O-])([O][Sb]34([OH])[O][C@H]([C@H](O)CO)[C@H]([O]3)[C@H](C(=O)[O-])[O]4)[O][C@H]([C@H](O)CO)[C@@H]1[O]2.[Na+].[Na+].[Na+] [SSG, Sodium Stibogluconate, reference compound] was tested, and the “level at which recombinant and intracellular SHP-1 and SHP-2 are inhibited” value (SHP-1 and SHP-2) was 10 µg/mL and the pLck-pY394 induction ([1]; lower (1 μg/ml) or higher (100 μg/ml) doses) was “failed”.
